# Results filed as inconclusive are left out. Calls of active or inactive are those of the source.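 How the source made its calls: active means every test run gives a fitted half-maximal dose no higher than ten times the top tested dose, with signal falling; inconclusive means runs disagree, or a flat mid-level drop or poor fit; inactive means every test run inactive.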
# Target: Autoinducer 2-binding periplasmic protein LuxP (Vibrio harveyi) + Autoinducer 2 sensor kinase/phosphatase LuxQ (Vibrio harveyi) (UniProt P54300+P54302)
# Experiment: AI-2 driven bioluminescence decrease, LuxPQ pathway – strain MM32 LuxS-null, luminescence, dry powder, set 3, mechanism study for V. harveyi quorum sensing inhibitors, dose response (AID 493117)
# Details: AI-2 luminescence, 5 h; for activity change, negative = inhibition: at 16 µM (top of the series)
# Chain of Autoinducer 2-binding periplasmic protein LuxP (Vibrio harveyi) + Autoinducer 2 sensor kinase/phosphatase LuxQ (Vibrio harveyi) (P54300 whole entry, looked up): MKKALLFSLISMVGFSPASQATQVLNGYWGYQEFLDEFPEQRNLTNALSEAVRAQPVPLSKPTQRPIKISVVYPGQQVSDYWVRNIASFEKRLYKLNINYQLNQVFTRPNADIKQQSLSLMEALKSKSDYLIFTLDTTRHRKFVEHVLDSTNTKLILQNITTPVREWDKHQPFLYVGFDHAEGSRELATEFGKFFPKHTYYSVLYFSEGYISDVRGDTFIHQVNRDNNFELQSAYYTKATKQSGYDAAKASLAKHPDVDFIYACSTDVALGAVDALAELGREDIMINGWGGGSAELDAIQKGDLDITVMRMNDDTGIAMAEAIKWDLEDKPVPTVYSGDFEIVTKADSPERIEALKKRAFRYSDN
# Chain of Autoinducer 2-binding periplasmic protein LuxP (Vibrio harveyi) + Autoinducer 2 sensor kinase/phosphatase LuxQ (Vibrio harveyi) (P54302 whole entry, looked up): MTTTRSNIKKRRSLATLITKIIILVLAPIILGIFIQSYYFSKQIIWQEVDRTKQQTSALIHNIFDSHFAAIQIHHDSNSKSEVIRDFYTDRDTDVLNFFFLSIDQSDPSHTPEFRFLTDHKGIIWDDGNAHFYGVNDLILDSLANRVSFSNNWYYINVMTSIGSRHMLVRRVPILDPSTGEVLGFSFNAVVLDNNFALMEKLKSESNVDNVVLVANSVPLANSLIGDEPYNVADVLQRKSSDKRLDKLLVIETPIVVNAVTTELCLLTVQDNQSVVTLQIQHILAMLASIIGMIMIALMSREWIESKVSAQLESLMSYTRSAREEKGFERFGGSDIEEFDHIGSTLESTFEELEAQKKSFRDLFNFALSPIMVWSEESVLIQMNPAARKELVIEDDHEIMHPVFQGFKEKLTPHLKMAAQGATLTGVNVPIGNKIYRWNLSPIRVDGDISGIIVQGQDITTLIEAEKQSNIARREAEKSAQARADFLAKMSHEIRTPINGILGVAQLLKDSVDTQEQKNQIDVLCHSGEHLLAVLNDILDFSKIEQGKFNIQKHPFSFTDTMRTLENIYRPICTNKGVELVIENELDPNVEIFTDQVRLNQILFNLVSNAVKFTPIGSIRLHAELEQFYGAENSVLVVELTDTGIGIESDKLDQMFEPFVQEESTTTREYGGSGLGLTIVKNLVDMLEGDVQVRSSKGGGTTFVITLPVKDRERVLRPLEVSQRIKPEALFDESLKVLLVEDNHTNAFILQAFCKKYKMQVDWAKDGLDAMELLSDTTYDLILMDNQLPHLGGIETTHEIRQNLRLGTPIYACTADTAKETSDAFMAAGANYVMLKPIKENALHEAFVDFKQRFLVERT
Structure (SMILES),"activity change, negative = inhibition",AC50 [µM]
COc1ccccc1NS(=O)(=O)c1cn(C)cn1,inactive,–
Cn1cnc(S(=O)(=O)Nc2ccccc2F)c1,inactive,–
O=S(=O)(Nc1ccccn1)c1ccc(Oc2ccccc2)cc1,–,1.35
O=C1C=C/C(=C/Br)O1,–,3.45
C[C@H](CO)N1C[C@H](C)[C@H](CN(C)Cc2ccc(C(=O)O)cc2)Oc2ncc(-c3ccc(C(=O)N(C)C)cc3)cc2C1=O,inactive,–
CC(=O)Nc1ccccc1NS(=O)(=O)c1cn(C)cn1,inactive,–
O=S(=O)(Nc1cccnc1)c1ccc(Oc2ccccc2)cc1,–,0.591
C=Cn1c(C(=O)O)ccc1-c1ccc(CC)cc1,–,2.32
CCc1ccc(-c2ccc(C(=O)O)n2C)cc1,–,3.61
CN(C)C(=O)c1ccccc1NS(=O)(=O)c1cn(C)cn1,inactive,–
Cc1noc(C)c1S(=O)(=O)Nc1ccc2c(c1)C(=O)N([C@@H](C)CO)C[C@@H](C)[C@@H](CN(C)Cc1ccc(Oc3ccccc3)cc1)O2,–,18.4
Cn1cnc(S(=O)(=O)Nc2ccccc2Cl)c1,inactive,–
C=Cn1c(C(=O)O)ccc1-c1ccc(Cl)cc1,–,4.46
Cc1ccccc1NS(=O)(=O)c1cn(C)cn1,inactive,–
O=S(=O)(Nc1ccccn1)c1ccccc1,inactive,–
C=Cn1c(C(=O)O)ccc1-c1ccc(OC)cc1,–,7.08
C[C@@H]1CN([C@H](C)CO)C(=O)c2ccccc2-c2ccccc2CO[C@@H]1CN(C)Cc1ccc(Oc2ccccc2)cc1,–,11.3
CCc1ccc(-c2ccc(C(=O)O)n2CC)cc1,inactive,–
Cn1cnc(S(=O)(=O)Nc2ccc(OC(F)(F)F)cc2)c1,–,2.42
C=Cn1c(C(=O)O)ccc1-c1cccs1,inactive,–

# — PubChem BioAssay AID493117 (Broad Institute, 2011)
